Data as given in patent US20070128217A1 (priority 2003, published 2007).

How the values were obtained:
[1] = tested on: control sera (pooled serum of ten healthy LUMC hospital workers; commercial negative donor pooled serum from the Dutch bloodbank); format: binding, human; design: Binding of Control serum LUMC to linear peptides / Binding of Control serum Blood-bank to linear peptides / Binding of Control serum LUMC to looped peptides / Binding of Control Serum Blood-Bank to Looped peptides / Binding of Control serum LUMC to linear peptides of the protein M of SARS-CoV Urbani / Binding of Control serum Blood-bank to linear peptides of the protein M of SARS-CoV Urbani / Binding of Control serum LUMC to looped peptides of the protein M of SARS-CoV Urbani / Binding of Control Serum Blood-Bank to Looped peptides of the protein M of SARS-CoV Urbani: unit not given here
[2] = tested on: antibodies in sera from SARS patients (sera 1a, 1b, 2, 6, 37, 62, London, SARS-yellow, SARS-green); format: binding, human; design: Binding of serum 6 to linear peptides of protein X1 of SARS-CoV Urbani / Binding of serum 37 to linear peptides of protein X1 of SARS-CoV Urbani / Binding of serum 6 to looped/cyclic peptide (PEPSCAN-ELISA) / Binding of serum 37 to looped/cyclic peptide (PEPSCAN-ELISA) / Binding of serum 37 to looped/cyclic peptides of protein X1 of SARS-CoV Urbani / Binding of serum 6 to linear peptides of protein X2 / Binding of serum 37 to linear peptides of protein X2 / Binding of serum 37 to looped/cyclic peptides of protein X2 of SARS-CoV Urbani / Binding of serum 6 to linear peptides of protein M of SARS-CoV Urbani / Binding of serum 37 to linear peptides of protein M of SARS-CoV Urbani / Binding of serum 6 to looped/cyclic peptides of protein M of SARS-CoV Urbani / Binding of serum 37 to looped/cyclic peptides of protein M of SARS-CoV Urbani / Binding of serum 6 to linear peptides of protein X3 of SARS-CoV Urbani / Binding of serum 37 to linear peptides of protein X3 of SARS-CoV Urbani / Binding of serum 37 to looped/cyclic peptides of protein X3 of SARS-CoV Urbani / Binding of serum 6 to linear peptides of protein X4 of SARS-CoV Urbani / Binding of serum 37 to linear peptides of protein X4 of SARS-CoV Urbani / Binding of serum 37 to looped/cyclic peptides of protein X4 of SARS-CoV Urbani / Binding of serum 6 to linear peptides of protein X5 of SARS-CoV Urbani / Binding of serum 37 to linear peptides of protein X5 of SARS-CoV Urbani / Binding of serum 37 to looped/cyclic peptides of protein X5 of SARS-CoV Urbani / Binding of serum 6 to linear peptides of protein N of SARS-CoV Urbani / Binding of serum 37 to linear peptides of protein N of SARS-CoV Urbani / Binding of serum 6 to linear peptide (PEPSCAN-ELISA) / Binding of serum 1a to looped/cyclic peptides of protein N of SARS-CoV Urbani / Binding of serum 1b to looped/cyclic peptides of protein N of SARS-CoV Urbani / Binding of serum 2 to looped/cyclic peptides of protein N of SARS-CoV Urbani / Binding of serum 6 to looped/cyclic peptides of protein N of SARS-CoV Urbani / Binding of serum 37 to looped/cyclic peptides of protein N of SARS-CoV Urbani / Binding of serum 62 to looped/cyclic peptides of protein N of SARS-CoV Urbani / Binding of serum London to looped/cyclic peptides of protein N of SARS-CoV Urbani / Binding of serum SARS-green to looped/cyclic peptides of protein N of SARS-CoV Urbani: unit not given here
[3] = tested on: recombinant human anti-SARS-CoV antibody 03-018; format: binding; design: Binding of antibody 03-018 to linear peptides of the N protein of SARS-CoV Urbani / Binding of antibody 03-018 to looped/cyclic peptides of the N protein of SARS-CoV Urbani: unit not given here
[4] = tested on: rabbit serum obtained by immunizing a rabbit with the SARS-CoV strain Frankfurt 1; format: binding; design: Binding of a rabbit serum to linear peptides / Binding of a rabbit serum to looped peptides / Rabbit serum linear peptides / Rabbit serum looped peptides / Binding of a rabbit serum to linear peptides of protein N of SARS-CoV Urbani (Rabbit serum linear peptides) / Binding of a rabbit serum to looped/cyclic peptides of protein N of SARS-CoV Urbani (Rabbit serum looped peptides): unit not given here

| Sequence | Binding of Control Serum Blood-Bank to Looped peptides [1] | Binding of Control serum Blood-bank to linear peptides [1] | Binding of Control serum LUMC to linear peptides [1] | Binding of Control serum LUMC to looped peptides [1] | Binding of serum 1a to linear peptide (PEPSCAN-ELISA) [2] | Binding of serum 1a to looped/cyclic peptides of protein N of SARS-CoV Urbani [2] | Binding of serum 1b to linear peptide (PEPSCAN-ELISA) [2] | Binding of serum 1b to looped/cyclic peptides of protein N of SARS-CoV Urbani [2] | Binding of serum 2 to linear peptide (PEPSCAN-ELISA) [2] | Binding of serum 2 to looped/cyclic peptides of protein N of SARS-CoV Urbani [2] | Binding of serum 6 to looped/cyclic peptides of protein N of SARS-CoV Urbani [2] | Binding of serum 37 to looped/cyclic peptides of protein N of SARS-CoV Urbani [2] | Binding of serum 62 to looped/cyclic peptides of protein N of SARS-CoV Urbani [2] | Binding of serum London to looped/cyclic peptides of protein N of SARS-CoV Urbani [2] | Binding of serum SARS-green to looped/cyclic peptides of protein N of SARS-CoV Urbani [2] | Binding of serum SARS-yellow to looped/cyclic peptides of protein N of SARS-CoV Urbani [2] | Binding of antibody 03-018 to linear peptides of the N protein of SARS-CoV Urbani [3] | Binding of antibody 03-018 to looped/cyclic peptides of the N protein of SARS-CoV Urbani [3] | Binding of a rabbit serum to linear peptides of protein N of SARS-CoV Urbani (Rabbit serum linear peptides) [4] | Binding of a rabbit serum to looped/cyclic peptides of protein N of SARS-CoV Urbani (Rabbit serum looped peptides) [4] | further results |
| --- | --- | --- | --- | --- | --- | --- | --- | --- | --- | --- | --- | --- | --- | --- | --- | --- | --- | --- | --- | --- | --- |
| RSSSRSRGNSRNSTP | 0.4 | 0.9 | 0.8 | 0.4 | 0.3 | 0.2 | 0.1 | 0.2 | 0.2 | 0.2 | 0.1 | 0.5 | 0.3 | 0.3 | 0.2 | 0.3 | 0.1 | 0.2 | 0.1 | 0.2 | Binding of serum 6 to linear peptide (PEPSCAN-ELISA) [2]: 0.2; Binding of serum 37 to linear peptide (PEPSCAN-ELISA) [2]: 0.5; Binding of serum 62 to linear peptide (PEPSCAN-ELISA) [2]: 0.6; Binding of serum London to linear peptide (PEPSCAN-ELISA) [2]: 0.5; Binding of serum SARS-green to linear peptide (PEPSCAN-ELISA) [2]: 0.2; Binding of serum SARS-yellow to linear peptide (PEPSCAN-ELISA) [2]: 0.5 |
| RFPRGQGVPINTNSG | 0.6 | 0.8 | 0.6 | 0.5 | – | 0.3 | – | 0.2 | – | 0.4 | 0.2 | 0.5 | 0.4 | 0.3 | 0.5 | 0.4 | 0.1 | 0.2 | 0.1 | 0.5 | Binding of serum 1a to linear peptides of protein N of SARS-CoV Urbani [2]: 0.2; Binding of serum 1b to linear peptides of protein N of SARS-CoV Urbani [2]: 0.1; Binding of serum 2 to linear peptides of protein N of SARS-CoV Urbani [2]: 0.3; Binding of serum 6 to linear peptides of protein N of SARS-CoV Urbani [2]: 0.1; Binding of serum 37 to linear peptides of protein N of SARS-CoV Urbani [2]: 0.7; Binding of serum 62 to linear peptides of protein N of SARS-CoV Urbani [2]: 0.7; Binding of serum London to linear peptides of protein N of SARS-CoV Urbani [2]: 0.5; Binding of serum SARS-green to linear peptides of protein N of SARS-CoV Urbani [2]: 0.4; Binding of serum SARS-yellow to linear peptides of protein N of SARS-CoV Urbani [2]: 0.6 |
| SGGGETALALLLLDR | 0.7 | 0.7 | 0.6 | 0.7 | 0.3 | 0.4 | 0.1 | 0.2 | 0.2 | 0.5 | 0.3 | 0.7 | 0.7 | 0.5 | 0.1 | 0.7 | 0.1 | 0.2 | 0.2 | 0.7 | Binding of serum 6 to linear peptide (PEPSCAN-ELISA) [2]: 0.2; Binding of serum 37 to linear peptide (PEPSCAN-ELISA) [2]: 0.7; Binding of serum 62 to linear peptide (PEPSCAN-ELISA) [2]: 0.7; Binding of serum London to linear peptide (PEPSCAN-ELISA) [2]: 0.4; Binding of serum SARS-green to linear peptide (PEPSCAN-ELISA) [2]: 0.1; Binding of serum SARS-yellow to linear peptide (PEPSCAN-ELISA) [2]: 0.5 |
| IGTRNPNNNAATVLQ | 0.9 | 0.8 | 0.9 | 0.8 | – | 0.4 | – | 0.3 | – | 0.7 | 0.4 | 0.9 | 0.8 | 0.6 | 0.7 | 0.5 | 0.1 | 0.3 | 0.1 | 0.4 | Binding of serum 1a to linear peptides of protein N of SARS-CoV Urbani [2]: 0.3; Binding of serum 1b to linear peptides of protein N of SARS-CoV Urbani [2]: 0.1; Binding of serum 2 to linear peptides of protein N of SARS-CoV Urbani [2]: 0.4; Binding of serum 6 to linear peptides of protein N of SARS-CoV Urbani [2]: 0.2; Binding of serum 37 to linear peptides of protein N of SARS-CoV Urbani [2]: 0.7; Binding of serum 62 to linear peptides of protein N of SARS-CoV Urbani [2]: 0.8; Binding of serum London to linear peptides of protein N of SARS-CoV Urbani [2]: 0.5; Binding of serum SARS-green to linear peptides of protein N of SARS-CoV Urbani [2]: 0.5; Binding of serum SARS-yellow to linear peptides of protein N of SARS-CoV Urbani [2]: 0.6 |
